Like-named read-outs stand apart in the source and are kept apart here.
Test: Solubility of pesticide powders in solvents, 2% stepwise increments
Conditions: for Dissolving power: compared with comparative solvents DMSO and DMAA810, for each of the active ingredients evaluated
Method: The solubility of various pesticides in these solvents or solvent components are evaluated.

[1] = solvent DEAC (N,N-diethyl acetamide), last concentration before powder not dissolved, 2% steps, no more than 2% lower than actual solubility
[2] = solvent DMAA810, last concentration before powder not dissolved, 2% steps, no more than 2% lower than actual solubility
[3] = solvent DMPA (N,N-dimethyl propanamide), last concentration before powder not dissolved, 2% steps, no more than 2% lower than actual solubility
[4] = solvent DMSO, last concentration before powder not dissolved, 2% steps, no more than 2% lower than actual solubility

| Compound | Solubility in DEAC [1] | Solubility in DMAA810 [2] | Solubility in DMPA [3] | Solubility in DMSO [4] | Solubility in DEAC | Solubility in DMAA810 | Solubility in DMPA | Solubility in DMSO | Dissolving power |
| --- | --- | --- | --- | --- | --- | --- | --- | --- | --- |
| Cc1c(COC(=O)[C@@H]2[C@H](/C=C(\Cl)C(F)(F)F)C2(C)C)cccc1-c1ccccc1 (racemic) [Bifenthrin] | 50 weight % | 33 weight % | 47 weight % | 7 weight % | – | – | – | – | – |
| CC(C)N1C(=O)N(c2ccccc2)CS/C1=N\C(C)(C)C [Buprofezin] | – | – | – | – | 31 weight % | 22 weight % | 33 weight % | 1 weight % | – |
| CCN(CC)C(C)=O [DEAC, N,N-diethyl acetamide] | – | – | – | – | – | – | – | – | stronger |
| CCC(=O)N(C)C [DMPA, N,N-dimethyl propanamide] | – | – | – | – | – | – | – | – | stronger |
| CCCCC(C#N)(Cn1cncn1)c1ccc(Cl)cc1 (stereo not drawn) [Myclobutanil] | 57 weight % | 42 weight % | 58 weight % | 57 weight % | – | – | – | – | – |
| COC(=O)N(OC)c1ccccc1COc1ccn(-c2ccc(Cl)cc2)n1 [Pyraclostrobin] | 54 weight % | 42 weight % | 63 weight % | 40 weight % | – | – | – | – | – |
| CC(C)(C)C(O)(CCc1ccc(Cl)cc1)Cn1cncn1 (stereo not drawn) [Tebuconazole] | – | 37 weight % | – | 32 weight % | 51 weight % | – | 54 weight % | – | – |
| CC(C)(C)C(=O)C(Oc1ccc(Cl)cc1)n1cncn1 (stereo not drawn) [Triazolone] | 54 weight % | 39 weight % | 58 weight % | 43 weight % | – | – | – | – | – |
| Abamectin | 50 weight % | 38 weight % | 51 weight % | 21 weight % | – | – | – | – | – |

From patent publication US11617366B2, “Solvents for agricultural applications and pesticide formulations” (Dow Global Technologies LLC, priority 2017, dated 2023)
